Assay results reported in patent US10858425B2, “Pan-ELR+ CXC chemokine antibodies” (Eli Lilly and Company, priority 2013, dated 2020).

Key:
[1] = biological target: T1, human CXCR2 (U937-huCXCR2 cells) (Homo sapiens, UniProt P25025); experiment: U937-huCXCR2 FLIPR activity of human CXCL8 wild type and mutants; type: cell-based; conditions: CXCL8 variant as ligand on U937-huCXCR2 cells
T1 construct: expressed in transfected cells; host or cells: U937 monocytic cell line, retrovirally transduced
T1 sequence (P25025 1-360): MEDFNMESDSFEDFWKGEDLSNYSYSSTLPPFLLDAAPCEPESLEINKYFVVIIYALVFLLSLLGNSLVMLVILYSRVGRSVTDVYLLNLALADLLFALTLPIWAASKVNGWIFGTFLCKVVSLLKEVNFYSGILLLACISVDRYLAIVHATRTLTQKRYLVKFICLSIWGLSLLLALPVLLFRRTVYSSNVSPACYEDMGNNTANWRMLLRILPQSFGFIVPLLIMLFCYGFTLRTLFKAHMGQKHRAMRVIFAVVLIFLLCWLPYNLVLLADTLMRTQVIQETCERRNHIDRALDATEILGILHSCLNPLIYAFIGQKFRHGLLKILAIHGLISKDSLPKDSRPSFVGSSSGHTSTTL
Description: Wild type and mutant human CXCL8 are tested for biologic activity and for neutralization by Antibody 1 using the U937-huCXCR2 assay. U937-huCXCR2 is a monocytic cell line transduced with retrovirus for expression of human CXCR2. A description of the U937-huCXCR2 assay is found below under Neutralizing Assays.
CXCL8 mutants are serially diluted in Assay Buffer containing 0.2% BSA in wells of v-bottom 96-well polypropylene plates. Ligand concentrations are 3 times the final assay concentration (final assay concentrations range from 300 to 0.0051 nM). A cell plate and a ligand plate are loaded into a Fluorescent Imaging Plate Reader (FLIPR-3, Molecular Devices) programmed to transfer 50 μL of ligand to wells of the cell plate. Fluorescence is recorded at 1 second intervals for 90 seconds. The change in fluorescence [delta relative fluorescence units (DRFU), Max RFU-Min RFU] is calculated from images 10 to 90. DRFU versus log (ligand concentration) is plotted and EC50 values are determined by nonlinear regression using Graph Pad Prism. Assays are performed in triplicate over three assay plates.

[2] = tested on: SKOV3-Luc ovarian cancer cells; experiment: SKOV3-Luc ovarian cancer xenograft model; type: in vivo, athymic nude female mice
Description: SKOV3-Luc is a human ovary cancer cell line that expresses firefly luciferase gene. SKOV3-Luc cells are often used in vivo to establish human ovarian adenocarcinoma tumor growth.
SKOV3-Luc ovarian cancer cells were mixed 1:1 with matrigel and implanted subcutaneously in the right rear flank of athymic nude female mice at 3.0×10^6 cells per injection. Mice were randomized into 4 groups at baseline according to tumor volume after the xenografts were grown to an average tumor volume of 200 mm^3. Mice received either control IgG4 antibody (2.5 mg/kg once a week), cisplatin (2.5 mg/kg once a week), Antibody 1 (20 mg/kg once a week), or a combination of cisplatin (2.5 mg/kg once a week) and Antibody 1 (20 mg/kg once a week) by intraperitoneal injection.

R6A: human CXCL8 point mutant R6A based on SEQ ID NO: 27 [Antibody R6A]
U937 FLIPR activity EC50 [1]: Not Active

N.N.[Cl][Pt][Cl] [Cisplatin, cisplatin]
Average Tumor Volume ([2]; Day 14): 122.65 mm^3
Average Tumor Volume ([2]; Day 19): 190.65 mm^3
Average Tumor Volume ([2]; Day 22): 289.15 mm^3
Average Tumor Volume ([2]; Day 26): 484.72 mm^3
Average Tumor Volume ([2]; Day 32): 806.31 mm^3
Average Tumor Volume ([2]; Day 35): 923.02 mm^3
Average Tumor Volume ([2]; Day 40): 941.42 mm^3
Average Tumor Volume ([2]; Day 43): 1047.34 mm^3
tumor growth inhibition ([2]; compared to isotype control, intraperitoneal, once a week): did not show statistically significant tumor growth inhibition

I40A: human CXCL8 point mutant I40A based on SEQ ID NO: 27 [Antibody I40A]
U937 FLIPR activity EC50 [1]: Not Active

I10A: human CXCL8 point mutant I10A based on SEQ ID NO: 27 [Antibody I10A]
U937 FLIPR activity EC50 [1]: Not Active
